Experiments:
[1] = (§1) Antagonist activity at GABAA receptor in Wistar rat neuronal cells assessed inhibition of GABA-evoked response by patch-clamp technique; assay type: functional, cell-based
neuronal = test: as §1; assay type: functional, cell-based

SMILES	EC50 [1] [nM]	Activity (neuronal)
CCC[C@@H](O)CC/C=C/C=C/C#CC#CCCCO [DIHYDROOENANTHOTOXIN]	835	–
CCC[C@@H](O)CC/C=C/C=C/C#CC#C/C=C/CO [OENANTHOTOXIN]	1390	Dose-dependent effect
